According to patent US20240294587A1, “K-RAS INHIBITOR” (THE JOHNS HOPKINS UNIVERSITY, priority 2021, published 2024):

How the values were obtained:
[1] = tested on: transport of GLUT4-GFP to the plasma membrane in 3T3-L1 adipocytes; experiment: Insulin-induced translocation of GLUT4-GFP in 3T3-L1 adipocytes (confocal microscopy); format: cell-based, mouse; conditions: 3T3-L1 adipocytes carrying GLUT4-GFP; insulin 30 min after serum starvation
Description: (§1) Differentiation into adipocytes was induced in WT 3T3-L1 cells and RhoA-KO 3T3-L1 cells expressing the indicated FLAG-RhoA proteins. Differentiation was analyzed Western blotting using anti-adiponectin antibodies (FIG. 6A) and band intensity was quantified (FIG. 6B). Bars are mean f SD (n=3). FIG. 6C is images of WT and RhoA-KO 3T3-L1 cells stained with oil red O before and after induction of the differentiation. FIG. 6D is images RhoA-KO 3T3-L1 cells expressing the indicated RhoA proteins and analyzed by oil red O stain after induction of differentiation. Differentiated WT 3T3-L1 adipocytes were stimulated with insulin after serum starvation in the presence of TAT-K-tetracosapeptide or a TAT peptide. Phosphorylation of AKT and TBC1D4 was analyzed by Western blotting (FIG. 6E) and quantification of band intensity (FIG. 6F). Bars are mean±SD (n=3). […]
(§2) Insulin-induced AKT phosphorylation and translocation of GLUT4 in 3T3-L1 adipocytes To examine AKT phosphorylation, differentiated WT 3T3-L1 adipocytes were incubated in serum-free DMEM medium for 5 h and stimulated with 100 nM insulin for 30 min. […] After clarification, cell lysates were analyzed by Western blotting using antibodies to AKT (Cell Signaling, 9272) and phospho-AKT (Serine 473) (Cell Signaling, 9271). […]

[2] = tested on: S473 AKT phosphorylation in HEK293 cells; experiment: Insulin-induced AKT phosphorylation in HEK293 cells; format: cell-based, human; conditions: peptide included during serum starvation and insulin stimulation (100 nM, 30 min), dose-dependent
Description: (§3) FIG. 3A is the amino acid sequence of the C-terminal region of K-Ras 4B—the helix α5 is highlighted and K-tetracosapeptide is underlined. Its predicted structure is shown on the right: positively- and negatively-charged surfaces are highlighted. FLAG-tagged GTP-bound K-Ras 4BG12V was incubated with GDP-loaded GFP-RhoA in the presence of K-tetracosapeptide (K-TC) or a scrambled peptide (50, 250, and 1250 nM). GFP-RhoA was pulled down using GFP-Trap beads. The pellets were analyzed by Western blotting using antibodies to FLAG and GFP (FIG. 3B) and quantified by band intensity (FIG. 3C). Bars are mean±SD (n=3). FIG. 3D is a schematic of the interaction of K-Ras 4B and RhoA in the presence of K-tetracosapeptide (K-TC) or a scrambled peptide. […] S473 AKT phosphorylation was analyzed by Western blotting (FIG. 3E) and band intensity of phospho-AKT relative to total AKT was quantified (FIG. 3F). Bars are mean±SD (n=3). After serum starvation, HEK293 cells were stimulated by insulin. […] S473 AKT phosphorylation was analyzed by Western blotting. (FIG. 3G) and band intensity was quantified (FIG. 3H). […]
Insulin-induced AKT phosphorylation in cells HEK293 cells and differentiated 3T3-L1 adipocytes were washed with serum-free DMEM and incubated with serum-free DMEM for 5 h. […] After clarification, cell lysates were analyzed by Western blotting.

[3] = tested on: phosphorylation of AKT and TBC1D4 in 3T3-L1 adipocytes; experiment: Insulin-induced phosphorylation of AKT and TBC1D4 in 3T3-L1 adipocytes; format: cell-based, mouse; conditions: differentiated WT 3T3-L1 adipocytes; peptide pre-treatment 5 h, 100 nM insulin 30 min
Description: as §1, §2

[4] = target: T1, interaction of purified GTP-K-Ras 4B and GDP-RhoA (Homo sapiens, UniProt P61586, G12V); experiment: In vitro protein-protein interaction assay (GFP-Trap pull-down, Western blotting); format: binding; conditions: peptide 50, 250 and 1250 nM, dose-dependent, FLAG-K-Ras 4BG12V pulled down with GFP-RhoA
T1 construct: made in house; host or cells: Dictyostelium cells
Description: as §3, with “(n=3).” for “(n=3). FIG. 3D is a schematic of the interaction of K-Ras 4B and RhoA in the presence of K-tetracosapeptide (K-TC) or a scrambled peptide.”, “3F).” for “3F). Bars are mean±SD (n=3). After serum starvation, HEK293 cells were stimulated by insulin.”
FLAG-tagged K-Ras4A and K-Ras 4B were eluted from anti-FLAG beads by incubation with 1 M arginine at room temperature for 5 min. Amounts of purified proteins were quantified on CBB-stained SDS-PAGE gels using ImageJ software with BSA as a standard. […] GFP-Trap beads were washed three times in 1 mM MgCl2, 100 mM potassium acetate, 25 mM HEPES (pH 7.4), and bound proteins were analyzed by Western blotting.

[5] = target: T2, KARATE (mTORC2 mixed with GTP-bound K-Ras 4BG12V and GDP-loaded RhoA) (Homo sapiens, UniProt P61586, G12V); experiment: In vitro reconstitution of mTORC2-mediated AKT phosphorylation; format: biochemical; conditions: S473 AKT phosphorylation by Western blotting; peptide 50, 250 and 1250 nM
T2 construct: made in house; host or cells: K-Ras 4B G12V and RhoA from Dictyostelium cells; AKT1 purchased (Sigma, 14-279)
Description: as §3, with “(n=3).” for “(n=3). FIG. 3D is a schematic of the interaction of K-Ras 4B and RhoA in the presence of K-tetracosapeptide (K-TC) or a scrambled peptide.”, “3F).” for “3F). Bars are mean±SD (n=3). After serum starvation, HEK293 cells were stimulated by insulin.”
In vitro reconstitution of mTORC2-mediated AKT phosphorylation The kinase activity of mTORC1 and mTORC2 was measured as described previously by Huang, Sarbassov dos, and Senoo (Methods Mol Biol 821, 75-86(2012), Methods Mol Biol 821, 59-74(2012), and Nat Cell Biol 21, 867-878(2019), respectively) with some modifications. […] AKT phosphorylation was detected by Western blotting with anti-phospho-AKT (serine 473) antibodies (Cell Signaling, 9271).

T1 sequence (P61586 whole entry G12V): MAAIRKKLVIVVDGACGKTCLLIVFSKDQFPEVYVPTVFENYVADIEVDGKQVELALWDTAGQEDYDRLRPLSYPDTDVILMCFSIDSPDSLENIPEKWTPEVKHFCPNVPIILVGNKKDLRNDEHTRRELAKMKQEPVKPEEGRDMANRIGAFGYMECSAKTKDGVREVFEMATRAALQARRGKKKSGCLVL
T2 sequence (P61586 whole entry G12V): as above

Sequence | effect on insulin-induced transport of GLUT4-GFP to the plasma membrane [1] | effect on insulin-stimulated AKT phosphorylation in cells [2] | effect on insulin-induced phosphorylation of AKT [3] | effect on insulin-induced phosphorylation of TBC1D4 [3] | effect on the interaction of purified GTP-K-Ras 4B and GDP-RhoA [4] | effect on AKT phosphorylation in vitro [5]
GRKKRRQRRRPQGVDDAFYTLVREIRKHKEKMSKDG [TAT-K-tetracosapeptide, K-tetracosapeptide fused to a cell-permeable TAT peptide] | strongly inhibited | blocked in a dose-dependent manner | blocked | blocked | – | –
GVDDAFYTLVREIRKHKEKMSKDG [K-tetracosapeptide, peptide of 24 amino acids corresponding to the helix α5 in K-Ras 4B] | – | – | – | – | greatly decreased | blocked
